Legend:
Assay type in all cases: in vivo, mouse
SRF^HKO mice [1] = assay: Echocardiography of SRF HKO mice on NR diet
Description: (§1) Transgenic mice. All experiments with animals conformed to the Directive 2010/63/EU of the European Parliament and were approved by the ethics committee Charles Darvin #5 (agreement 00369.01). SRF^HKO mice bear the tamoxifen-inducible α-MHC-MerCrMer transgene and the Siffloxed allele (Sf/Sf) as described previously (Parlakian et al. (2005). Temporally controlled onset of dilated cardiomyopathy through disruption of the SRF gene in adult heart. Journal 112, 2930-2939; Tritsch et al. (2013). An SRF/miR-1 axis regulates NCX1 and Annexin A5 protein levels in the normal and failing heart. Journal 98, 372-380). Transgenic mice have been bred for more than 20 generations in C57BL/6N background. The mice were housed in standard animal facility (CEF. Hôpital Pitié Salpétrière, agreement A-75-13-15, 75013 Paris), under a 12-h dark/light cycle. Tamoxifen (Sigma T5648) was administrated by i.p. injection at a dose of 0.7 mg diluted in 100 μl peanut oil at day (D) 0, D1 and D2. (Sf/Sf) littermates injected with tamoxifen at the same time than mutant were used as controls.
(§2) SRF^HKO and control (Sf/Sf) mice were administered either rodent maintenance SAFE A04 diet containing 3.10% crude fat. 16.10% crude proteins. 26% starch and 1.9% sugar (Scientific Animal Food Engineering, Paris, France) or SAFE # A04 diet supplemented with NR. NR was provided by Chromadex under brand name NIAGEN (Irvine Calif. USA). The soft pellets were manually prepared every 5 days by mixing 1.65 g of NR into 500 g of powdered SAFE A04 diet and 235 ml of water to reach 2.24 mg of NR/g (wet weight). Control diet was prepared in the same way omitting NR. Mice had ad libitum access to food and water. Mice (average body weight 31.3±0.82 g, no difference between groups) consumed an average of 6 g of soft food per day, reaching a daily intake of 450 mg NR/kg. No difference in food intake was observed between SRF^HKO and control mice.
Echocardiography was performed on lightly anesthetized mice given isoflurane (induction with 2% isoflurane 100% O2. and maintained with 0.5% isoflurance 100% O2). Non-invasive measurements of left ventricular dimensions were evaluated using Doppler echocardiography (Vivid 7 Dimension/Vivid7 PRO; GE Medical Systems) with a probe ultrasound frequency range of 9-14 MHz. The two-dimensionally guided time-motion recording mode (parasternal long-axis view) of the left ventricle (LV) provided the following measurements: diastolic and systolic septal (IVS) and posterior wall thicknesses (LVPW); internal end-diastolic (LVEDD) and end-systolic diameters (LVESD); and heart rate. Each set of measurements was obtained from the same cardiac cycle. At least 3 sets of measurements were obtained from 3 different cardiac cycles. LV fractional shortening (FS) was calculated using the formula: (LVEDD−LVESD)/LVEDD×100. LV myocardial volume (LVV), LV end-diastolic volume (EDV), and end-systolic volume (ESV) were calculated using a half-ellipsoid model of the LV. From these volumes, LV ejection fraction (EF) was calculated using, the formula: (EDV−ESV)/EDV×100. H/R ratio was calculated by the formula (PWThd+IVSThd)/LVEDd.

Lmna^H222P/H222P mice = assay: Echocardiography and heart size in treated Lmna H222P/H222P mice
Protocol: Mice were bred in an accredited animal facility (accreditation number: C-75-13-08). All experiments on mice were approved by the Comité d'éthique en expérimentation animate Charles Darwin No 5. Mice Lmna^H222P/H222P were backcrossed 8 times to 129S2/SvPasOrlRj strain mice to obtain pure genetic background. Male mice used for the studies were maintained under a 12 h light/12 h dark cycle at constant temperature (23° C.) with free access to food and water. Nicotinamide riboside (NR) complementation: Animals at 17 weeks of age were fed for 9 weeks with either a chow diet (A04: Scientific Animal Food & Engineering) or a chow diet complemented with 0.25% of NR (kindly provided by ChromaDex, Inc. California) corresponding to a dose of 400 mg/kg/day for a mouse weighing 25 g eating 4 g of food per day. Nicotinamide (NAM) treatment: Animals at 17 weeks of age were injected intraperitoneally (IP) every two days (q.a.d.) for 9 weeks with either physiologic serum or physiologic serum added with NAM at 50 mg/ml corresponding to a dose of 500 mg/kg for a mouse weighing 25 g.
Mouse transthoracic echocardiography was performed using an ACUSON 128XP/10 ultrasound with a 11 Mhz linear probe (Mountain View).MHz transducer applied to the chest wall. Mice were maintained under anesthetized with 0.75% isoflurane anaesthesia (0.75% in O2) and placed on a heating pad (25° C.). Left ventricular (LV) parameters were obtained from M-mode recordings in a modified short axis view. The intra ventricular septum (IVS), LV posterior wall (LVPW), LV diameter (LVD) in diastole and systole, the percentage of fractional shortening (FS) and the heart rate (HR) were measured from the mean of at least three separate cardiac cycles. A “blinded” echocardiographer, unaware of the genotype and the treatment, performed the examinations.

SRF^HKO mice [2] = assay: RT-qPCR gene expression in SRF HKO heart
Description: as §1
Nicotinamide and nicotinamide riboside i.p. administration. Nicotinamide was diluted in saline at 300 mM. Nicotinamide riboside (NR) bromide salt stock solution (1M) was in 10 mM citric acid pH 6.0. For injection 3 volumes of NR stock solution was mixed extemporaneously with 7 volumes of PBS to obtain a 300 mM injectable solution at pH 7.2. Mice were injected daily at a dose of 1 μmole/g body weight.
as §2
cDNAs were reverse transcribed from RNA (1.5 μg) extracted in TRIzol (Thermofisher) from cell cultures and tissues using the Superscript II Reverse Transcriptase (Life Technologies). Quantitative PCR was carried out on a Light Cycler 480 (Roche Diagnostics) using Fast Start SYBR Green Master (Roche Diagnostics). Quantification of gene expression was calculated as R=2^ΔCt(Ref Cp−target Cp), with Hprt used as a as reference. Primers were designed using the NCBI Primer-BLAST software. Primer sequences are available on request.

[3] = NR diet, echocardiography D45 to D47
[4] = NR diet 400 mg/kg/day vs chow-diet, echocardiography after 4 and 9 weeks

## NC(=O)c1ccc[n+]([C@@H]2O[C@H](CO)[C@@H](O)[C@H]2O)c1 [NR, nicotinamide riboside]
SRF^HKO mice [1]; NR diet 0.22% from D5, echocardiography D45 to D47, ± S.D, non-treated SRF HKO 48.1, control mice 73.5
  LV ejection fraction (LVEF): 64.8%±8.2
SRF^HKO mice [1]; NR diet, D45 to D47
  LV contractile functions (LVEF and FS): clearly protected
  changes in stroke volume or cardiac output: not significant
  dilatation of LV in systole and diastole: fully protected
  reduction of the H/R ratio (eccentric remodeling): fully prevented
SRF^HKO mice [1]; NR diet, D45 to D47, more efficiently at posterior wall than interventricular septum
  thinning of the LV wall in systole and diastole: reduced the thinning
SRF^HKO mice [1]; [3]
  LV mass index: did not induce any change
  heart rate: did not induce any change
Lmna^H222P/H222P mice; [4]
  left-ventricular end diastolic diameter (LVDd): significantly decreased
  left-ventricular end systolic diameter (LVDs): significantly decreased
Lmna^H222P/H222P mice; NR diet 400 mg/kg/day vs chow-diet, starting as early as four weeks of treatment
  left-ventricular fractional shortening (FS): increased
Lmna^H222P/H222P mice; NR diet vs chow-diet
  overall heart size: reduced
SRF^HKO mice [2]; NR diet, heart of SRF HKO mice
  expression level of the NADPH oxidase gene Nox4: increased
  expression level of the Nfel2 gene encoding NRF2 and its target gene metallothionein 2: increased
SRF^HKO mice [2]; SRF HKO mice under the NR diet
  expression level of G6pdx: maintained at higher level than in controls
SRF^HKO mice [2]; i.p. administration from D8 to D15
  Srf and Nmrk2 expression levels: not changed
